Test results taken from US9427426B2 (priority 2008, dated 2016).

Columns and labels:
[1] = water (NAC: at 20° C.); cited from earlier work
[2] = system: rats intoxicated with lead (lead acetate); experiment: Example 1: erdosteine per os vs NAC per os in rats intoxicated with lead; type: in vivo, Wistar rats; conditions: erdosteine 875 mg/kg or NAC 500 mg/kg per os once a day for 7 days
Experimental: (§1) 3. […] NAC has been mixed with bidistilled water, the resulting solution being administered in volume of 10 ml/kg.
(§2) 4. […] Erdosteine has been mixed with bidistilled water and sodium hydrogen carbonate equimolar, the resulting solution being administered in volume of 10 ml/kg.
(§3) Mortality has been recorded. […] Few animals have been collected urine eliminated spontaneously for Pb—Hg analysis. Animals have been sacrificed under general anesthesia with ether. 6 animals of each group (3 males and 3 females) have been randomly selected for macroscopic and microscopic anatomic-pathological examination.

rat = conditions: cited from earlier work
[3] = system: rats intoxicated with mercury (mercury chloride); experiment: Example 2: erdosteine i.v. vs NAC i.v. in rats intoxicated with mercury; type: in vivo, Wistar rats; conditions: for Mortalitaty total / Mortality in percent: Hg intoxicated (mercury chloride 42 mg/kg per os), 35 animals/lot; for Anatomical pathology: lesions / Hg in urine mean values / Creatinine mean values / Haematocrit mean values / Haemoglobin mean values / Leucocytes mean values / Urea mean values / Uric acid mean value / erythrocytes mean values: Hg intoxicated; for Creatinine mean values / Haematocrit mean values / Haemoglobin mean values / Leucocytes mean values / Urea mean values / Uric acid mean value / erythrocytes mean values: survivors after 7 days
Experimental: The animals have been randomly divided in 11 lots.
3. […] NAC has been dissolved in bidistilled water.
4. […] Erdosteine has been solubilized in bidistilled water and sodium hydrogen carbonate equimolar, the resulting solution being administered in volume of 10 ml/kg. Preliminarily we tested the different molar ratios erdosteine/sodium hydrogen carbonate in a range between 0.5:1 and 1.5:1 and the volume to be solubilized. […] Animals Monitoring:
as §3

[4] = Example 2: erdosteine toxicity i.v. (lot 11); type: in vivo, Wistar rats; conditions: both sexes, Wistar, in vivo, iv, 3500 mg/kg; rat, i.v.; read-out: LD50 of i.v. form of erdosteine
Text: (§4) These lots have been evaluated only for mortality.

rats [5] = experiment: Example 2: erdosteine toxicity i.v. (lot 11); type: in vivo, Wistar rats; conditions: erdosteine 3500 mg/kg i.v. slowly; 10 animals, not metal intoxicated
Text: as §4

[6] = system: rats intoxicated with mercury (mercury chloride); experiment: Example 1: erdosteine per os vs NAC per os in rats intoxicated with mercury; type: in vivo, Wistar rats; conditions: erdosteine 875 mg/kg or NAC 500 mg/kg per os once a day for 7 days
Experimental: as §1, §2, §3

rats [7] = experiment: Example 3: evaluation of erdosteine formulation toxicity i.v. (lots 10-13); type: in vivo, Wistar rats; conditions: 10 animals
Experimental: Have been introduced 4 lot of 10 animals (5 males and 5 females) as follows: • Lot 10—intoxicated with 3500 mg/kg erdosteine i.v., 4.37 g erdosteine+1.48 g sodium hydrogen carbonate dissolved in 25 ml, administrated 2 ml/100 g of animal weight • Lot 11—intoxicated with 4000 mg/kg erdosteine i.v. as in lot 10, administrated 2.28 ml/100 g of animal weight • Lot 12—intoxicated with 4500 mg/kg erdosteine i.v. 4.5 g dissolved in 20 ml, administrated 2 ml/100 g of animal weight. Dissolution volume was choose in order to keep a similar injection volume. • Lot 13—intoxicated with 5500 mg/kg erdosteine i.v. as in lot 12, administrated 2.44 ml/100 g of animal weight Statistical Analysis
It has been evaluated toxicity of formula 350 mg erdosteine+118 mg sodium hydrogen carbonate (formula that has shown the best stability data).

[8] = Pb intoxicated (lead acetate 4665 mg/kg per os), 30 animals/lot
[9] = survivors after 7 days, Pb intoxicated
[10] = ERDO1 = erdosteine 350 mg/kg i.v. or NAC 114 mg/kg i.v. once a day for 7 days
[11] = ERDO2 = erdosteine 175 mg/kg i.v. once a day for 7 days
[12] = ERDO1 = erdosteine 350 mg/kg i.v. or NAC 114 mg/kg i.v. once a day
[13] = ERDO2 = erdosteine 175 mg/kg i.v. once a day
[14] = Hg intoxicated (mercury chloride 42 mg/kg per os), 30 animals/lot
[15] = survivors after 7 days, Hg intoxicated
[16] = 3500 mg/kg erdosteine i.v. (lot 10)
[17] = 4000 mg/kg erdosteine i.v. (lot 11)
[18] = 4500 mg/kg erdosteine i.v. (lot 12), solution not perfectly clear
[19] = 5500 mg/kg erdosteine i.v. (lot 13), solution not perfectly clear

O=C(O)CSCC(=O)NC1CCSC1=O (centres unmarked) [erdosteine, Erdosteine]
solubility in water, in words [1]: moderately soluble
Mortality in percent [2, 8]: 16.6%
Mortality total [2, 8]: 5
Anatomical pathology: lesions (macroscopic and microscopic examination) ([2]; Pb intoxicated): less important damages
Pb in urine, Pb mean values ([2]; Pb intoxicated, GS MS Varian 4100): 10.9 mg/L
Creatinine mean values [2, 9]: 0.48 ^1, 2 mK/dl
Haematocrit mean values [2, 9]: 39.41^3
Haemoglobin mean values [2, 9]: 13.75^3 g/dl
Leucocytes mean values [2, 9]: 7.31^3
Urea mean values [2, 9]: 50.93 ^1, 2 mg/dl
Uric acid mean value [2, 9]: 1.90 ^3 mg/dl
erythrocytes mean values [2, 9]: 6.82^3 *10^6/mm^3
LD50 per os (rat; per os, rat where given): 8750 mg/kg
LD50 i.v. (rat; rat, i.v.): > 3500 mg/kg
Mortalitaty total [3, 10]: 8 ^1, 2
Mortality in percent [3, 10]: 22.6%
Mortality in percent ([3]; ERDO1 = erdosteine 350 mg/kg i.v. or NAC 114 mg/kg i.v. once a day for 7 days, listed as ERDOI): 22.6%
Mortalitaty total [3, 11]: 12 ^1, 2
Mortality in percent [3, 11]: 34.3%
Anatomical pathology: lesions [3, 10]: least severe damages
Hg in urine mean values [3, 10]: 18.7 mg/L
Anatomical pathology: lesions [3, 11]: less important lesions
Hg in urine mean values [3, 11]: 14.4 mg/L
Creatinine mean values [3, 12]: 0.60 ^2 mK/dl
Haematocrit mean values [3, 12]: 38.43 ^3
Haemoglobin mean values [3, 12]: 15.05 ^3 g/dl
Leucocytes mean values [3, 12]: 17.36 ^3
Urea mean values [3, 12]: 50.36 ^1, 2 mg/dl
Uric acid mean value [3, 12]: 2.25 ^4 mg/dl
erythrocytes mean values [3, 12]: 6.98 ^3 *10^6/mm^3
Creatinine mean values [3, 13]: 0.51 ^1, 2 mK/dl
Haematocrit mean values [3, 13]: 36.83 ^3
Haemoglobin mean values [3, 13]: 13.86 ^J g/dl
Leucocytes mean values [3, 13]: 8.61 ^3
Urea mean values [3, 13]: 53.15 ^1, 2 mg/dl
Uric acid mean value [3, 13]: 2.23 ^4 mg/dl
erythrocytes mean values [3, 13]: 6.55 ^3 *10^6/mm^3
LD50 [4]: > 3500 mg/kg
Mortalitaty total (rats [5]): 1/10
Mortality in percent (rats [5]): 10%
Mortality in percent [6, 14]: 16.6%
Mortality total [6, 14]: 5^1
Anatomical pathology: lesions (macroscopic and microscopic examination) ([6]; Hg intoxicated): less important lesions
Hg in urine mean values ([6]; Hg intoxicated, GS MS Varian 4100): 14.7 mg/L
Creatinine mean values [6, 15]: 0.47 ^1, 2 mK/dl
Haematocrit mean values [6, 15]: 38.58^3
Haemoglobin mean values [6, 15]: 13.75^3 g/dl
Leucocytes mean values [6, 15]: 7.81^3
Urea mean values [6, 15]: 49.18 ^1, 2 mg/dl
Uric acid mean value [6, 15]: 2.40 ^1 mg/dl
erythrocytes mean values [6, 15]: 6.81^3 *10^6/mm^3
Mortality % (rats [7]; [16]): 10%
Total mortality (rats [7]; [16]): 1/10
Mortality % (rats [7]; [17]): 40%
Total mortality (rats [7]; [17]): 4/10
Mortality % (rats [7]; [18]): 70%
Total mortality (rats [7]; [18]): 7/10
Mortality % (rats [7]; [19]): 100%
Total mortality (rats [7]; [19]): 10/10
